Converted amounts (≈) assume the structure as drawn. “And” between values parts separate entries of the source, which are not always exact repeats. Identical values can stand only once. One block for each compound: values may come before it.
Assays:
Assay in all cases: ≥ marks a high value that may be exact or a test limit, other limits are often not marked, values filed in µg/mL are converted to µM
[1] = tested on: Legionella pneumophila Lens
[2] = tested on: Staphylococcus aureus CCT 2580
[3] = tested on: Pseudomonas aeruginosa ATCC 15422
[4] = tested on: Salmonella enterica subsp. enterica serovar Typhimurium ATCC 14028
[5] = tested on: Streptococcus mutans AU159
[6] = tested on: Bacillus thuringiensis ATCC 10792
[7] = tested on: Bacillus cereus ATCC 11778
[8] = tested on: Escherichia coli ATCC 25922
[9] = tested on: Enterococcus faecium CCT 5079
[10] = tested on: Micrococcus luteus ATCC 4698
[11] = tested on: Salmonella enterica subsp. enterica serovar Choleraesuis ATCC 10708
[12] = tested on: Staphylococcus aureus CCT 6538
[13] = tested on: Escherichia coli CCT 1457
[14] = tested on: Enterococcus hirae ATCC 10541
[15] = tested on: Staphylococcus aureus ATCC 25923
[16] = tested on: Staphylococcus epidermidis ATCC 12228
[17] = tested on: Streptococcus pneumoniae ATCC 11733
[18] = tested on: Escherichia coli ATCC 11775
[19] = tested on: Pseudomonas aeruginosa ATCC 13388
[20] = tested on: Pseudomonas aeruginosa ATCC 27853
[21] = tested on: Streptococcus pyogenes ATCC 19615
[22] = tested on: Enterococcus faecalis ATCC 29212
[23] = tested on: Escherichia coli
[24] = tested on: Klebsiella pneumoniae ATCC 13883
[25] = tested on: Bacillus subtilis
[26] = tested on: Listeria monocytogenes DSM 20600
[27] = tested on: Listeria fleischmannii DSM 24998
[28] = tested on: Listeria grayi DSM 20601
[29] = tested on: Micrococcus luteus DSM 20030
[30] = tested on: Escherichia coli D31
[31] = tested on: Escherichia coli UB1005
[32] = tested on: Lacticaseibacillus rhamnosus 1.0936
[33] = tested on: Lacticaseibacillus rhamnosus 1.0385
[34] = tested on: Lacticaseibacillus rhamnosus 1.0911
[35] = tested on: Escherichia coli K88
[36] = tested on: Lacticaseibacillus rhamnosus 7469
[37] = tested on: Escherichia coli K99
[38] = tested on: Lactiplantibacillus plantarum 8014
[39] = tested on: Staphylococcus aureus ATCC 43300
[40] = tested on: Salmonella enterica subsp. enterica serovar Pullorum C79-13
[41] = tested on: Salmonella enterica subsp. enterica serovar Typhimurium C77-31
[42] = tested on: Candida albicans ATCC 90028

Structure (SMILES): CC[C@H](C)[C@H](NC(=O)[C@H](Cc1ccccc1)NC(=O)CNC(=O)[C@H](CC(N)=O)NC(=O)[C@@H](N)CCSC)C(=O)N[C@@H](CC(C)C)C(=O)NCC(=O)N[C@@H](CCCCN)C(=O)N[C@@H](Cc1ccccc1)C(=O)N[C@@H](Cc1ccccc1)C(=O)N[C@@H](CC(=O)O)C(=O)N[C@H](C(=O)N[C@@H](C)C(=O)N[C@@H](CCCCN)C(=O)N[C@@H](CCCCN)C(=O)N[C@H](C(=O)N[C@@H](CC(C)C)C(=O)N[C@@H](CC(=O)O)C(=O)N[C@H](C(=O)N[C@H](C(=O)N[C@@H](Cc1ccccc1)C(=O)N[C@@H](CCC(N)=O)C(=O)N[C@@H](CCCCN)C(=O)O)[C@@H](C)CC)[C@@H](C)O)[C@@H](C)CC)C(C)C [MNGFILGKFFDVAKKILDTIFQK]
MIC [1]: 1.22 µM (≈ 3.26 µg/mL)

Structure (SMILES): CC[C@H](C)[C@H](N)C(=O)N[C@@H](CC(N)=O)C(=O)N[C@@H](Cc1c[nH]c2ccccc12)C(=O)N[C@@H](CC(C)C)C(=O)N[C@@H](C)C(=O)N[C@H](C(=O)N[C@@H](C)C(=O)N[C@@H](C)C(=O)N[C@@H](C)C(=O)N[C@H](C(=O)N[C@@H](C)C(=O)NCC(=O)N[C@@H](CCSC)C(=O)N[C@@H](CC(C)C)C(N)=O)C(C)C)[C@@H](C)CC [INWLAIAAAVAGML]
MIC [2]: ≥ 354 µM | MIC [3]: ≥ 354 µM | MIC [4]: > 354 µM | MIC [5]: ≥ 354 µM | MIC [6]: ≥ 354 µM | MIC [7]: ≥ 354 µM | MIC [8]: > 354 µM | MIC [9]: ≥ 354 µM | MIC [10]: ≥ 354 µM | MIC [11]: ≥ 354 µM | MIC [12]: ≥ 354 µM | MIC [13]: ≥ 354 µM | MIC [14]: ≥ 354 µM | MIC [15]: > 354 µM | MIC [16]: > 354 µM | MIC [17]: ≥ 354 µM | MIC [18]: ≥ 354 µM | MIC [19]: ≥ 354 µM

Structure (SMILES): CC(C)C[C@H](NC(=O)[C@H](Cc1c[nH]c2ccccc12)NC(=O)[C@H](CCC(N)=O)NC(=O)[C@@H](NC(=O)[C@H](CCC(N)=O)NC(=O)[C@@H]1CCCN1C(=O)[C@H](CCC(=O)O)NC(=O)[C@H](CCCN=C(N)N)NC(=O)[C@@H](N)CCC(N)=O)C(C)C)C(=O)N[C@@H](CCC(=O)O)C(=O)N[C@@H](CCC(N)=O)C(=O)N[C@@H](CCC(N)=O)C(=O)N[C@H](C(=O)N[C@@H](C)C(=O)N[C@@H](CCCCN)C(=O)N[C@@H](CCCN=C(N)N)C(=O)N[C@@H](CCCN=C(N)N)C(=O)N[C@H](C(=O)N[C@@H](CCCCN)C(=O)N[C@@H](CCCN=C(N)N)C(=O)O)[C@@H](C)O)C(C)C [QREPQVQWLEQQVAKRRTKR]
MIC [20]: > 100 µM | MIC [4]: > 100 µM | MIC [21]: ≥ 100 µM | MIC [15]: > 100 µM | MIC [22]: > 100 µM | MIC [23]: > 100 µM | MIC [24]: ≥ 100 µM | MIC [25]: ≥ 100 µM

Structure (SMILES): CC[C@H](C)[C@H](NC(=O)[C@H](C)NC(=O)[C@H](CCCCN)NC(=O)[C@H](CCCCN)NC(=O)[C@@H](NC(=O)[C@@H]1CCCN1C(=O)[C@H](CCCCN)NC(=O)[C@H](Cc1c[nH]c2ccccc12)NC(=O)[C@H](CC(C)C)NC(=O)[C@H](CCCCN)NC(=O)CNC(=O)[C@H](Cc1c[nH]c2ccccc12)NC(=O)[C@H](Cc1ccccc1)NC(=O)CN)C(C)C)C(N)=O [GFWGKLWKPVKKAI]
MIC [26]: 30 µM (≈ 49.7 µg/mL) | MIC [27]: 15 µM (≈ 24.9 µg/mL) | MIC [28]: 8 µM (≈ 13.3 µg/mL) | MIC [29]: 2 µM (≈ 3.31 µg/mL)

Structure (SMILES): CC[C@H](C)[C@H](N)C(=O)N[C@@H](CC(N)=O)C(=O)N[C@@H](Cc1c[nH]c2ccccc12)C(=O)N[C@@H](CCCCN)C(=O)N[C@@H](CCCCN)C(=O)N[C@H](C(=O)N[C@@H](C)C(=O)N[C@@H](CCCCN)C(=O)N[C@@H](CCCCN)C(=O)N[C@H](C(=O)N[C@@H](C)C(=O)NCC(=O)N[C@@H](CCSC)C(=O)N[C@@H](CC(C)C)C(N)=O)C(C)C)[C@@H](C)CC [INWKKIAKKVAGML]
MIC [2]: 1.25 µM (≈ 2 µg/mL) | MIC [3]: 5 µM (≈ 8 µg/mL) | MIC [4]: 1.25 µM (≈ 2 µg/mL) | MIC [5]: 1.25 µM (≈ 2 µg/mL) | MIC [6]: 19.4 µM (≈ 31 µg/mL) | MIC [7]: 10 µM (≈ 16 µg/mL) | MIC [8]: 2.5 µM (≈ 4 µg/mL) | MIC [9]: 0.625 µM (≈ 0.999 µg/mL) | MIC [10]: 0.625 µM (≈ 0.999 µg/mL) | MIC [11]: 5 µM (≈ 8 µg/mL) | MIC [12]: 0.625 µM (≈ 0.999 µg/mL) | MIC [13]: 0.625 µM (≈ 0.999 µg/mL) | MIC [14]: 5 µM (≈ 8 µg/mL) | MIC [15]: 1.25 µM (≈ 2 µg/mL) | MIC [16]: 0.625 µM (≈ 0.999 µg/mL) | MIC [17]: 0.625 µM (≈ 0.999 µg/mL) | MIC [18]: 2.5 µM (≈ 4 µg/mL) | MIC [42]: 9.76 µM (≈ 15.6 µg/mL) | MIC [19]: 10 µM (≈ 16 µg/mL)

Now from value to compound, other results behind:

MIC [26]: 2 µM (≈ 3.98 µg/mL) | MIC [27]: 1 µM (≈ 1.99 µg/mL) | MIC [28]: 1 µM (≈ 1.99 µg/mL) | MIC [30]: 4 µM (≈ 7.95 µg/mL) | MIC [29]: 0.25 µM (≈ 0.497 µg/mL)
Structure (SMILES): CC[C@H](C)[C@H](NC(=O)[C@H](C)NC(=O)[C@H](CC(N)=O)NC(=O)[C@H](CCCCN)NC(=O)[C@@H](NC(=O)CNC(=O)[C@H](CCC(=O)O)NC(=O)[C@H](Cc1c[nH]c2ccccc12)NC(=O)[C@H](CC(C)C)NC(=O)[C@H](CCCCN)NC(=O)CNC(=O)[C@H](Cc1c[nH]c2ccccc12)NC(=O)[C@H](Cc1ccccc1)NC(=O)CN)C(C)C)C(=O)N[C@@H](CCCCN)C(=O)N[C@@H](CCCCN)C(=O)N[C@@H](CCCCN)C(N)=O [GFWGKLWEGVKNAIKKK]

MIC [20]: > 64 µM | MIC [31]: ≥ 32 µM | MIC [4]: > 64 µM | MIC [32]: ≥ 64 µM | MIC [8]: 23.9 µM and 32 µM | MIC [33]: ≥ 64 µM | MIC [34]: ≥ 64 µM | MIC [35]: ≥ 32 µM | MIC [36]: ≥ 64 µM | MIC [37]: ≥ 32 µM | MIC [39]: 8 µM (≈ 8.35 µg/mL) | MIC [40]: ≥ 64 µM | MIC [41]: ≥ 64 µM
Structure (SMILES): NC(=O)[C@H](CCCN=C(N)N)NC(=O)[C@H](CCCN=C(N)N)NC(=O)[C@H](Cc1c[nH]c2ccccc12)NC(=O)[C@H](Cc1c[nH]c2ccccc12)NC(=O)[C@H](Cc1c[nH]c2ccccc12)NC(=O)[C@@H](N)CCCN=C(N)N [RWWWRR]
MIC [38]: ≥ 64 µM

Source: DBAASP
